Results on 30 molecules are retold here after patent US20230303512A1, “MODULATORS OF MYB-MEDIATED TRANSCRIPTION AND USES THEREOF” (Massachusetts Institute of Technology, priority 2020, published 2023).

Where only a bound is given, the exact number is not on record here.

For one assay, the system named is endogenous Myb protein. The assay is described as follows: Molt4-5×MRE-FLuc reporter assay. The assay is classed as cell-based. Conditions: 4 hours, One-Glo, normalized to DMSO; read-out: IC50 Molt4-5xMRE-FLuc Reporter. The protocol:
Molt4 cells were stably transduced with a lentiviral construct encoding a 5×MRE Myb-responsive promoter driving firefly luciferase expression. The reporter output is controlled by the levels/activity of endogenous Myb protein in the Molt4 cell line.
Molt4-5×MRE-FLuc cells were plated at a density of 10000 cells/well in 25 uL of media in a 384-well plate. Compound analogs were added using a Tecan transfer tool to the wells. The plate was incubated for 4 hours, and then firefly luciferase signal measured using promega One-Glo luciferase assay system according to the manufacturer's protocols. The signal was normalized to control wells which were treated with DMSO vehicle.
On the technique in general: A reporter such as luciferase makes a cellular process visible.

For a further assay, the system named is Molt4-5×MRE-FLuc cells. The assay is described as follows: Cell-Titer Glo viability assay, Molt4-5×MRE-FLuc cells. The assay is classed as cell-based. Conditions: 4 hours; read-out: IC50 Cell Titer Glo Molt4-5xMRE-FLuc Viability. As for the experimental part:
Molt4-5×MRE-FLuc cells were plated at a density of 10000 cells/well in 25 uL of media in a 384-well plate. The following day, compound analogs were added using a Tecan transfer tool. The plates were incubated for 4 hours, and then the viability was measured using promega Cell-titer glo assay according to the manufacturer's protocols.
In general terms: In ATP-based viability assays light output follows the ATP content of the culture.

Usually IC50 stands for the concentration needed to halve the response being measured. As for `Cc1cc(N2CCC(N(Cc3cccc(N4CCCC4)c3)C(=O)NC(C)C)CC2)nc(N)n1` [KI-TM1-003, 1-(1-(2-Amino-6-methylpyrimidin-4-yl)piperidin-4-yl)-3-isopropyl-1-(3-(pyrrolidin-1-yl)benzyl)urea], the IC50 in the assay with endogenous Myb protein and in the assay with Molt4-5×MRE-FLuc cells was above 40 µM in each case.
In the case of `CC(=O)N(Cc1cccc(N2CCCC2)c1)C1CCN(c2cc(C)nc(N)n2)CC1` [KI-TM1-004, N-(1-(2-amino-6-methylpyrimidin-4-yl)piperidin-4-yl)-N-(3-(pyrrolidin-1-yl)benzyl)acetamide], the IC50 with endogenous Myb protein and in the assay with Molt4-5×MRE-FLuc cells was above 40 µM throughout.
Regarding `Cc1cc(N2CCC(NCc3ccccc3N3CCCC3)CC2)nc(N)n1` [KI-TM1-006, 4-methyl-6-(4-((2-(pyrrolidin-1-yl)benzyl)amino)piperidin-1-yl)pyrimidin-2-amine], the IC50 in the assay with endogenous Myb protein and in the assay on Molt4-5×MRE-FLuc cells was above 40 µM each time.
On to `Cc1cc(N2CCC(NCc3ccc(N4CCCC4)cc3)CC2)nc(N)n1` [KI-TM1-007, 4-methyl-6-(4-((4-(pyrrolidin-1-yl)benzyl)amino)piperidin-1-yl)pyrimidin-2-amine], for which the IC50 in the assay with endogenous Myb protein and in the assay with Molt4-5×MRE-FLuc cells was above 40 µM each time.
With `Cc1cc(N2CCC(NC(=O)c3cccc(N4CCCC4)c3)CC2)nc(N)n1` [KI-TM1-008, N-(1-(2-amino-6-methylpyrimidin-4-yl)piperidin-4-yl)-3-(pyrrolidin-1-yl)benzamide], the IC50 in the assay with endogenous Myb protein and in the assay on Molt4-5×MRE-FLuc cells was above 40 µM each time.
As for `Cc1cc(N2CCC(NCc3cccc(N4CCCCC4)c3)CC2)nc(N)n1` [KI-TM1-009, 4-methyl-6-(4-((3-(piperidin-1-yl)benzyl)amino)piperidin-1-yl)pyrimidin-2-amine], the IC50 is 23.2 µM in the assay on endogenous Myb protein and above 40 µM in the assay with Molt4-5×MRE-FLuc cells.
The corresponding values for `Cc1cc(N2CCC(NCc3cccc(-n4cccc4)c3)CC2)nc(N)n1` [KI-TM1-010, 4-(4-((3-(1H-pyrrol-1-yl)benzyl)amino)piperidin-1-yl)-6-methylpyrimidin-2-amine] are 21.2 µM and above 40 µM.
The matching figures for `Cc1cc(N2CCC(NCc3cccc(N(C)C)c3)CC2)nc(N)n1` [KI-TM1-011, 4-(4-((3-(dimethylamino)benzyl)amino)piperidin-1-yl)-6-methylpyrimidin-2-amine]: above 40 µM and above 40 µM.
The corresponding values for `COc1cccc(CNC2CCN(c3cc(C)nc(N)n3)CC2)c1` [KI-TM1-012, 4-(4-((3-methoxybenzyl)amino)piperidin-1-yl)-6-methylpyrimidin-2-amine] are above 40 µM and above 40 µM.
For `Cc1cc(N2CCC(NCc3cccc(-n4ccnc4)c3)CC2)nc(N)n1` [KI-TM1-014, 4-(4-((3-(1H-imidazol-1-yl)benzyl)amino)piperidin-1-yl)-6-methylpyrimidin-2-amine], the IC50 with endogenous Myb protein and in the assay on Molt4-5×MRE-FLuc cells was above 40 µM in each case.
As for `Cc1cc(N2CCC[C@@H](NCc3cccc(N4CCCC4)c3)C2)nc(N)n1` [KI-TM1-016R, (R)-4-Methyl-6-(3-((3-(pyrrolidin-1-yl)benzyl)amino)piperidin-1-yl)pyrimidin-2-amine], the IC50 with endogenous Myb protein and in the assay with Molt4-5×MRE-FLuc cells was above 40 µM each time.
As to `Cc1cc(N2CCC[C@H](NCc3cccc(N4CCCC4)c3)C2)nc(N)n1` [KI-TM1-016S, (S)-4-Methyl-6-(3-((3-(pyrrolidin-1-yl)benzyl)amino)piperidin-1-yl)pyrimidin-2-amine], the IC50 in the assay on endogenous Myb protein was 22.3 µM; in the assay with Molt4-5×MRE-FLuc cells it was above 40 µM.
The matching figures for `Cc1cc(NCCCNCc2cccc(N3CCCC3)c2)nc(N)n1` [KI-TM1-017, 6-Methyl-N^4-(3-((3-(pyrrolidin-1-yl)benzyl)amino)propyl)pyrimidine-2,4-diamine]: above 40 µM and above 40 µM.
In the case of `Cc1cc(N2CCC(NCc3cccc(N4CCCC4)c3)CC2)ncn1` [KI-TM1-019, 1-(6-Methylpyrimidin-4-yl)-N-(3-(pyrrolidin-1-yl)benzyl)piperidin-4-amine], the IC50 in the assay with endogenous Myb protein was 22.1 µM; in the assay with Molt4-5×MRE-FLuc cells, above 40 µM.
The matching figures for `Cc1cc(N2CCC(NCc3cccc(C(C)(C)C)c3)CC2)nc(N)n1` [KI-TM1-026, 4-(4-((3-(tert-Butyl)benzyl)amino)piperidin-1-yl)-6-methylpyrimidin-2-amine]: above 40 µM and above 40 µM.
The matching figures for `CCN(CC)c1ccc(CNC2CCN(c3cc(C)nc(N)n3)CC2)cc1` [KI-TM1-027, 4-(4-((4-(Diethylamino)benzyl)amino)piperidin-1-yl)-6-methylpyrimidin-2-amine]: above 40 µM and above 40 µM.
The corresponding values for `Cc1cc(N2CCC(NCc3cccc(CN4CCCC4)c3)CC2)nc(N)n1` [KI-TM1-028, 4-Methyl-6-(4-((3-(pyrrolidin-1-ylmethyl)benzyl)amino)piperidin-1-yl)pyrimidin-2-amine] are above 40 µM and above 40 µM.
As for `C#CCCC1(CCN(Cc2cccc(N3CCCC3)c2)C2CCN(c3cc(C)nc(N)n3)CC2)N=N1` [KI-TM1-030, 4-(4-((2-(3-(But-3-yn-1-yl)-3H-diazirin-3-yl)ethyl)(3-(pyrrolidin-1-yl)benzyl)amino)-piperidin-1-yl)-6-methylpyrimidin-2-amine], the IC50 with endogenous Myb protein was 19.8 µM; in the assay with Molt4-5×MRE-FLuc cells it was above 40 µM.
The corresponding values for `Cc1cc(N2CCC(N(Cc3cccc(N4CCCC4)c3)C(=O)C=COCCOCCOCCN)CC2)nc(N)n1` [KI-TM1-031, N-(1-(2-Amino-6-methylpyrimidin-4-yl)piperidin-4-yl)-3-(2-(2-(2-aminoethoxy)ethoxy)-ethoxy)-N-(3-(pyrrolidin-1-yl)benzyl)propenamide] are above 40 µM and above 40 µM.
The matching figures for `Cc1cc(N2CCCC(N(Cc3cccc(N4CCCC4)c3)C(=O)C=COCCOCCOCCN)C2)nc(N)n1` (stereo not drawn) [KI-TM1-032, N-(1-(2-Amino-6-methylpyrimidin-4-yl)piperidin-3-yl)-3-(2-(2-(2-aminoethoxy)ethoxy)-ethoxy)-N-(3-(pyrrolidin-1-yl)benzyl)propenamide]: above 40 µM and above 40 µM.
The matching figures for `Cc1cc(N2CCC(NCc3cccc(N4CCCC4)c3)CC2)nc(Cl)n1` [KI-TM1-033, 1-(2-Chloro-6-methylpyrimidin-4-yl)-N-(3-(pyrrolidin-1-yl)benzyl)piperidin-4-amine]: 23.5 µM and above 40 µM.
In the case of `CCCNC(=O)N(Cc1cccc(N2CCCC2)c1)C1CCN(c2cc(C)nc(N)n2)CC1` [KI-TM1-034, 1-(1-(2-Amino-6-methylpyrimidin-4-yl)piperidin-4-yl)-3-propyl-1-(3-(pyrrolidin-1-yl)benzyl)urea], the IC50 with endogenous Myb protein and in the assay with Molt4-5×MRE-FLuc cells was above 40 µM each time.
As for `Cc1cnc(N)nc1N1CCC(NCc2cccc(N3CCCC3)c2)CC1` [KI-TM1-036, 5-Methyl-4-(4-((3-(pyrrolidin-1-yl)benzyl)amino)piperidin-1-yl)pyrimidin-2-amine], the IC50 in the assay on endogenous Myb protein was 24.9 µM; with Molt4-5×MRE-FLuc cells, above 40 µM.
The corresponding values for `Cc1cc(N2CCC(NCc3cccc(N4CCCC4)c3)CC2)nc(NCCO)n1` [KI-TM1-037, 2-((4-Methyl-6-(4-((3-(pyrrolidin-1-yl)benzyl)amino)piperidin-1-yl)pyrimidin-2-yl)amino)ethan-1-ol] are above 40 µM and above 40 µM.
The corresponding values for `Nc1nc(Cl)cc(N2CCC(NCc3cccc(N4CCCC4)c3)CC2)n1` [KI-TM1-038, 4-Chloro-6-(4-((3-(pyrrolidin-1-yl)benzyl)amino)piperidin-1-yl)pyrimidin-2-amine] are above 40 µM and above 40 µM.
The matching figures for `Cc1cc(N2CCC(NCc3cccc(N4CCN(C)CC4)c3)CC2)nc(N)n1` [KI-TM1-039, 4-Methyl-6-(4-((3-(4-methylpiperazin-1-yl)benzyl)amino)piperidin-1-yl)pyrimidin-2-amine]: above 40 µM and above 40 µM.
In the case of `Cc1cc(N2CCC(NCc3cccc(N4CCOCC4)c3)CC2)nc(N)n1` [KI-TM1-040, 4-Methyl-6-(4-((3-morpholinobenzyl)amino)piperidin-1-yl)pyrimidin-2-amine], the IC50 with endogenous Myb protein and with Molt4-5×MRE-FLuc cells was above 40 µM in each case.
As for `Cc1cc(N2CCC(NCc3cccc(N4CCCC4)c3)CC2)nc(NCCOCCOCCOCCN)n1` [KI-TM1-041, N-(2-(2-(2-(2-Aminoethoxy)ethoxy)ethoxy)ethyl)-4-methyl-6-(4-((3-(pyrrolidin-1-yl)benzyl)amino)piperidin-1-yl)pyrimidin-2-amine], the IC50 with endogenous Myb protein and in the assay on Molt4-5×MRE-FLuc cells was above 40 µM in each case.
`Cc1cc(N2CCC(N(CCCCCCOCCOCCOCCCCCC(=O)Nc3cccc4c3C(=O)N(C3CCC(=O)NC3=O)C4=O)Cc3cccc(N4CCCC4)c3)CC2)nc(N)n1` (stereo not drawn) [KI-TM1-043, 2-(1-(2-amino-6-methylpyrimidin-4-yl)piperidin-4-yl)-N-(2-(2,6-dioxopiperidin-3-yl)-1,3-dioxoisoindolin-4-yl)-1-(3-(pyrrolidin-1-yl)phenyl)-9,12,15-trioxa-2-azahenicosan-21-amide]: the IC50 in the assay on endogenous Myb protein and in the assay with Molt4-5×MRE-FLuc cells was above 40 µM each time.
For `Cc1cc(N2CCC(N(CCCCCCOCCOCC(=O)Nc3cccc4c3C(=O)N(C3CCC(=O)NC3=O)C4=O)Cc3cccc(N4CCCC4)c3)CC2)nc(N)n1` (stereo not drawn) [KI-TM1-044, 2-(2-((6-((1-(2-Amino-6-methylpyrimidin-4-yl)piperidin-4-yl)(3-(pyrrolidin-1-yl)benzyl)amino)hexyl)oxy)ethoxy)-N-(2-(2,6-dioxopiperidin-3-yl)-1,3-dioxoisoindolin-4-yl)acetamide], the concentration for half-maximal inhibition (IC50) in the assay on endogenous Myb protein and in the assay on Molt4-5×MRE-FLuc cells was above 40 µM each time.
